# Tested on: cancer cell lines
# Test: Multiplexed cytotoxicity assay: cell proliferation (relative cell count IC50, GI50)
# Assay type: cell-based
# Settings: Homo sapiens
# Protocol: (§1) Cells are grown in RPMI1640, 10% FBS, 2 mM L-alanyl-L-Glutamine, 1 mM Na pyruvate or a special medium in a humidified atmosphere of 5% CO2 at 37° C. Cells are seeded into 384-well plates and incubated in a humidified atmosphere of 5% CO2 at 37° C. Compounds are added 24 h post cell seeding. At the same time, a time zero untreated cell plate is generated. After a 72 hour incubation period, cells are fixed and stained with fluorescently labeled antibodies and nuclear dye to allow visualization of nuclei, apoptotic cells and mitotic cells. Apoptotic cells are detected using an anti-active caspase-3 antibody. Mitotic cells are detected using an anti phospho-histone-3 antibody. Compounds are serially diluted 3.16-fold and assayed over 10 concentrations in a final assay concentration of 0.1% DMSO from the highest test concentration of 10 μM. Automated fluorescence microscopy was carried out using a Molecular Devices ImageXpress Micro XL high-content imager, and images are collected with a 4× objective.
# (§2) Sixteen-bit TIFF images are acquired and analyzed with MetaXpress 5.1.0.41 software. Cell proliferation is measured by the signal intensity of the incorporated nuclear dye. The cell proliferation assay output is referred to as the relative cell count. To determine the cell proliferation end point, the cell proliferation data output is transformed to percentage of control (POC) using the following formula: POC=relative cell count(compound wells)/relative cell count(vehicle wells)×100
# (§3) GI50 is the concentration needed to reduce the observed growth by half. This is the concentration that inhibits the growth to the level midway between growth in untreated cells and the number of cells seeded in the well (Time zero value). The IC50 values are calculated using nonlinear regression to fit data to a sigmoidal 4 point, 4 parameter One-Site dose response model, where: y(fit)=A+[(B−A)/(1+((C/x)^D))].
# as §1, with “In another experiment, cells were grown” for “Cells are grown”, “Cells were” for “Cells are”, “Compounds were” for “Compounds are”, “plate was” for “plate is”, “cells were” for “cells are”, “images were” for “images are”
# as §2, with “images were” for “images are”, “proliferation was” for “proliferation is”, “output was” for “output is”
# as §3, with “GI50 refers to” for “GI50 is”, “This corresponds to” for “This is”, “values were” for “values are”
# [1] = JIYOYE, JIYOYE (Hematopoietic and lymphoid, Lymphoma)
# [2] = JeKo-1, JEKO1 (Hematopoietic and lymphoid, Lymphoma)
# [3] = Jurkat, JURKAT (Hematopoietic and lymphoid, Leukemia)
# [4] = K562, K562 (Hematopoietic and lymphoid, Leukemia)
# [5] = KATO III, 72 h, KATOIII, Stomach
# [6] = KU812, KU812 (Hematopoietic and lymphoid, Leukemia)
# [7] = L-428, L428 (Hematopoietic and lymphoid, Lymphoma)
# [8] = MC116, MC116 (Hematopoietic and lymphoid, Lymphoma)
# [9] = MC-IXC, 72 h, MCIXC, CNS, Neuroblastoma
# [10] = ME-180, 72 h, ME180, Female GU, Ovary, 72 h
# [11] = MEG-01, MEG01 (Hematopoietic and lymphoid, Leukemia)
# [12] = MES-SA, 72 h, MESSA, Soft Tissue, Sarcoma
# [13] = MG-63, 72 h, MG63, Soft Tissue, Osteosarcoma, 72 h
# [14] = MHH-PREB-1, MHHPREB1 (Hematopoietic and lymphoid, Leukemia)
# [15] = MIA PaCa-2, 72 h, MIAPACA2, Pancreas, 72 h
# [16] = MOLT-3, MOLT3 (Hematopoietic and lymphoid, Leukemia)
# [17] = MOLT-16, MOLT16 (Hematopoietic and lymphoid, Leukemia)
# [18] = MV4-11, MV411 (Hematopoietic and lymphoid, Leukemia)
# [19] = Malme-3M, MALME3M (Skin, Melanoma)
# [20] = NALM-6, NALM6 (Hematopoietic and lymphoid, Leukemia)
# [21] = NCI-H69, 72 h, NCIH69, Lung, SCLC, 72 h
# [22] = NCI-H292, 72 h, NCIH292, Lung, NSCLC, 72 h
# [23] = NCI-H295R, NCIH295R (Endocrine, Adrenal gland)
structure (smiles),measurement,setting,value
"C[C@]1(C(N)=O)CC[C@@H](n2c(Nc3c(Cl)cc(Cl)cc3Cl)nc3cnc(N[C@@H]4CCOC[C@H]4F)nc32)CC1 [Compound 1, cis-4-[2-{[(3S,4R)-3-fluorooxan-4-yl]amino}-8-(2,4,6-trichloroanilino)-9H-purin-9-yl]-1-methylcyclohexane-1-carboxamide]",GI50,[1],81.4 nM
same,IC50,[1],210 nM
same,GI50,[2],461 nM
same,IC50,[2],830 nM
same,GI50,[3],3340 nM
same,IC50,[3],3730 nM
same,GI50,[4],> 10000 nM
same,IC50,[4],> 10000 nM
same,GI50,[5],61.2 nM
same,IC50,[5],78.7 nM
same,GI50,[6],3 nM
same,IC50,[6],15.9 nM
same,GI50,[7],1630 nM
same,IC50,[7],3460 nM
same,GI50,"LNCaP, 72 h, Prostate",2430 nM
same,IC50,"LNCaP, 72 h, Prostate",5070 nM
same,GI50,"LS174T, LS174T (Colon)",194 nM
same,IC50,"LS174T, LS174T (Colon)",259 nM
same,GI50,"LS-123, LS123 (Colon)",61 nM
same,IC50,"LS-123, LS123 (Colon)",188 nM
same,GI50,"LS-411N, LS411N (Colon)",35.8 nM
same,IC50,"LS-411N, LS411N (Colon)",53 nM
same,GI50,"LS-513, LS513 (Colon)",35.3 nM
same,IC50,"LS-513, LS513 (Colon)",38.6 nM
same,GI50,"LS-1034, LS1034 (Colon)",224 nM
same,IC50,"LS-1034, LS1034 (Colon)",676 nM
same,GI50,"M059J, M059J (CNS, Glioma)",612 nM
same,IC50,"M059J, M059J (CNS, Glioma)",3310 nM
same,GI50,[8],6020 nM
same,IC50,[8],6490 nM
same,GI50,[9],2040 nM
same,IC50,[9],2330 nM
same,GI50,"MCF7, MCF7 (Breast)",636 nM
same,IC50,"MCF7, MCF7 (Breast)",3470 nM
same,GI50,"MDA-MB-231, MDAMB231 (Breast)",33.9 nM
same,IC50,"MDA-MB-231, MDAMB231 (Breast)",62.4 nM
same,GI50,"MDA-MB-415, MDAMB415 (Breast)",729 nM
same,IC50,"MDA-MB-415, MDAMB415 (Breast)",> 10000 nM
same,GI50,"MDA-MB-436, MDAMB436 (Breast)",262 nM
same,IC50,"MDA-MB-436, MDAMB436 (Breast)",> 10000 nM
same,GI50,"MDA-MB-453, MDAMB453 (Breast)",656 nM
same,IC50,"MDA-MB-453, MDAMB453 (Breast)",2820 nM
same,GI50,"MDA-MB-468, MDAMB468 (Breast)",36.3 nM
same,IC50,"MDA-MB-468, MDAMB468 (Breast)",72.1 nM
same,GI50,[10],> 10000 nM
same,IC50,[10],> 10000 nM
same,GI50,[11],81.8 nM
same,IC50,[11],221 nM
same,GI50,[12],810 nM
same,IC50,[12],1100 nM
same,GI50,[13],108 nM
same,IC50,[13],115 nM
same,GI50,[14],6690 nM
same,IC50,[14],6970 nM
same,GI50,[15],35.7 nM
same,IC50,[15],39.6 nM
same,GI50,[16],946 nM
same,IC50,[16],3030 nM
same,GI50,[17],2880 nM
same,IC50,[17],3350 nM
same,GI50,[18],107 nM
same,IC50,[18],184 nM
same,GI50,[19],3.4 nM
same,IC50,[19],12 nM
same,GI50,"MeWo, MEWO (Skin, Melanoma)",102 nM
same,IC50,"MeWo, MEWO (Skin, Melanoma)",159 nM
same,GI50,[20],> 10000 nM
same,IC50,[20],> 10000 nM
same,GI50,[21],5000 nM
same,IC50,[21],> 10000 nM
same,GI50,[22],278 nM
same,IC50,[22],686 nM
same,GI50,[23],> 10000 nM
same,IC50,[23],> 10000 nM
same,GI50,"NCI-H441, 72 h, NCIH441, Lung, NSCLC, 72 h",271 nM

# From patent US10513519B2, “Solid forms of (1S,4S)-4-(2-(((3S,4R)-3-fluorotetrahydro-2H-pyran-4-yl)amino)-8-((2,4,6-trichlorophenyl)amino)-9H-purin-9-yl)-1-methylcyclohexane-1-carboxamide and methods of their use” (Signal Pharmaceuticals, LLC, priority 2016, dated 2019)
